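Values below derive from 48-hour exposures of cells grown in 96-well plates, with endpoints linearly interpolated between the two concentrations bracketing the appropriate inhibition level. The concentration for 50% growth inhibition is given as GI50. TGI: total growth inhibition.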 Residues, ends and D or L forms follow the SMILES beside them. *: point of attachment. Boc = CC(C)(C)OC(=O)*; OBn = c1ccc(CO*)cc1
Key:
Assay in all cases: growth of human tumour cells (NCI), 48 h
KM12 colon = tested on: KM12 colon
TK-10 renal = tested on: TK-10 renal
HL-60(TB) leukemia = tested on: HL-60(TB) leukemia
MALME-3M melanoma = tested on: MALME-3M melanoma
HCC-2998 colon = tested on: HCC-2998 colon
OVCAR-3 ovarian = tested on: OVCAR-3 ovarian
T-47D breast = tested on: T-47D breast
RXF 393 renal = tested on: RXF 393 renal
NCI/ADR-RES ovarian = tested on: NCI/ADR-RES ovarian
DU-145 prostate = tested on: DU-145 prostate

SMILES	TGI (KM12 colon)	TGI (TK-10 renal)	TGI (HL-60(TB) leukemia)	TGI (MALME-3M melanoma)	TGI (HCC-2998 colon)	TGI (OVCAR-3 ovarian)	TGI (T-47D breast)	TGI (RXF 393 renal)	TGI (NCI/ADR-RES ovarian)	TGI (DU-145 prostate)	GI50 (KM12 colon)	GI50 (TK-10 renal)	GI50 (RXF 393 renal)	GI50 (NCI/ADR-RES ovarian)	GI50 (HL-60(TB) leukemia)	GI50 (MALME-3M melanoma)	GI50 (DU-145 prostate)	GI50 (HCC-2998 colon)
NC(=O)N/N=C(/Cc1nc2ccc(C(=O)c3ccccc3)cc2[nH]c1=O)C(=O)Nc1ccc(C(F)(F)F)cc1[N+](=O)[O-]	> 100 µM	> 100 µM	> 100 µM	> 100 µM	> 100 µM	> 100 µM												
CC(=O)c1cccc(NC(=O)C(=O)C(c2cnc3ccc([N+](=O)[O-])cc3n2)[N+](=O)[O-])c1 (configuration not stated)	> 100 µM	> 100 µM	> 100 µM	> 100 µM	> 100 µM	> 100 µM	> 100 µM	> 100 µM	> 100 µM	> 100 µM								
Oc1ccccc1C1=NOC(c2ccc(C(F)(F)F)cc2)C1 (configuration not stated)	> 50 µM	> 16.2 µM	> 50 µM	> 50 µM	> 50 µM	> 50 µM	> 38.1 µM	> 50 µM	> 50 µM	> 50 µM								
CC(C)(C)OC(=O)C1=C2C=C(O)C=CC2(C)N(Cc2ccccc2)C1=N (configuration not stated)	23.1 µM	10.2 µM	6.35 µM	10.9 µM	29.3 µM	13.8 µM	10.2 µM	6.96 µM	> 82.8 µM	12.8 µM								
O=c1[nH]nc(Cn2c3ccc(Br)cc3c3nc4ccccc4nc32)n1C1CCCCC1	> 100 µM	> 100 µM			> 100 µM	> 100 µM	> 100 µM	> 100 µM	> 100 µM	> 100 µM								
O=c1c2cc(I)ccc2nc(SCc2n[nH]c(=S)o2)n1Cc1ccccc1	40.4 µM	37.7 µM	16.5 µM	34.8 µM	35.3 µM	31.1 µM	45.4 µM	10.9 µM	54.2 µM	31.1 µM								
CC(C)CC(NC(=O)OC(C)(C)C)C(=O)N1CCCC1C(=O)OCc1ccccc1 (stereo not drawn) (Boc-Leu-Pro-OBn; configuration not given here)	> 100 µM	> 100 µM		> 100 µM		> 100 µM	> 100 µM	> 100 µM	> 100 µM	> 100 µM								
O=C(Nc1cc(Cl)cc(Cl)c1)/C(Cc1nc2ccccc2[nH]c1=O)=N/NC(=O)c1ccncc1	> 100 µM	> 100 µM	> 100 µM	> 100 µM	> 100 µM	> 100 µM												
O=C1c2ccccc2CC12Cc1ccccc1C2	> 100 µM	97.4 µM	48.4 µM	> 100 µM	70.3 µM	> 100 µM	> 100 µM	70.1 µM	89.1 µM	> 100 µM								
N#Cc1c(Cl)nc2ccccc2c1N=[N+]=[N-]	17.8 µM	9.82 µM	3.3 µM	3.75 µM	14.4 µM	3.76 µM	5.83 µM	2.93 µM	37.3 µM	28.1 µM								
O=S(=O)(c1ccccc1)n1cc(C[P+](c2ccccc2)(c2ccccc2)c2ccccc2)c2ccccc21	13.1 µM	16.9 µM	6.84 µM	14.7 µM	15.7 µM	13.5 µM		20.3 µM										
N=C(N)c1ccc(-c2ccc(-c3cccs3)s2)s1	2.92 µM	2.89 µM	3.42 µM	3.67 µM	2.48 µM			0.924 µM	3.62 µM	2.97 µM	1.47 µM	1.48 µM	0.29 µM	1.79 µM	1.58 µM	1.71 µM	1.52 µM	1.13 µM
NCCCCC(=O)c1cccnc1	> 100 µM	> 100 µM	> 100 µM	> 100 µM		> 100 µM												
N#Cc1nc(-c2ccccn2)oc1N	> 100 µM	> 100 µM	> 100 µM	> 100 µM	> 100 µM	> 100 µM		> 100 µM		> 100 µM								
COc1ccc(/C=C2/NC(=S)N=C2Cl)cc1	> 100 µM	> 100 µM	> 100 µM	> 100 µM		> 100 µM	> 100 µM	> 100 µM	> 100 µM	> 100 µM								
CCN(CC)c1ccc2cc(-c3nnc(-c4ccccc4O)o3)c(=O)oc2c1	37.8 µM		22.7 µM	33.6 µM	72.6 µM	21.1 µM			44.1 µM	23.6 µM								
O=C(NCCN1CCCCC1)c1ccc(I)cc1	> 100 µM	> 100 µM		> 100 µM	> 100 µM	> 100 µM	> 100 µM	> 100 µM	> 100 µM	> 100 µM								
Clc1ccc(-c2ccc(-c3nnc(COc4ccc(OCc5nnc(-c6ccc(-c7ccc(Cl)cc7Cl)o6)o5)c(Cl)c4)o3)o2)c(Cl)c1	> 100 µM	> 100 µM	> 100 µM		> 100 µM	> 100 µM	> 100 µM	73.2 µM	> 100 µM	> 100 µM								
Cc1ccc(N2CCN(CCC(=O)O)CC2)cc1	> 100 µM	> 100 µM		> 100 µM		> 100 µM	> 100 µM	> 100 µM	> 100 µM	> 100 µM								
Cc1cc(=O)[nH]c(NNC(C#N)c2c(O)ccc3ccccc23)n1 (configuration not stated)	17.3 µM	65.8 µM	8.27 µM	26.8 µM		43.1 µM		23.6 µM										
Nc1nc2ccc(OCC(O)CN3CCCCC3)cc2[n+]([O-])n1 (configuration not stated)	> 100 µM	> 100 µM	> 100 µM	> 100 µM	> 100 µM	> 100 µM		> 100 µM	> 100 µM	> 100 µM								
CN(C)C=NCCN1CCOCC1		> 100 µM	> 100 µM	> 100 µM		> 100 µM	> 100 µM	> 100 µM	> 100 µM	> 100 µM								
O=[N+]([O-])/C(C(Cl)=C(Cl)Cl)=C(\Nc1ccccc1)n1nnc2ccccc21	48 µM			> 100 µM	> 100 µM	> 100 µM	> 100 µM		> 100 µM									
C=C1C(=O)OC2CC(=C)C3CC=C(C)C3CC12 (configuration not stated)	> 100 µM	34.4 µM	87.1 µM		43.3 µM	91.9 µM	37.1 µM		> 100 µM									

Source: PubChem BioAssay (NCI)
